Assay results: patent US10973840B2, “Methods of sensitizing tumor cells to weak base chemotherapeutic drugs” (SOCPRA SCIENCES SANTÉ ET HUMAINES S.E.C., priority 2017, dated 2021)
Read-outs that look alike come from different tables or passages of the source.

Assays:
Type in all cases: cell-based, human
HT-1080 cells [1] = test: Intracellular localization of Dox by confocal live-cell imaging, HT-1080; conditions: for effect on hypoxia-induced Dox sequestration within endosomes: HT-1080, 1% O2, Cq 10 μM, Baf 100 nM
Experimental: (§1) Cells were cultured in 25 mm-diameter glass coverslips (Thermo Fisher Scientific) and incubated under various conditions (as indicated in the FIG. legends). Cells were then incubated for 2 h in a medium containing Dox (2 μM). After the incubation period, cells were washed to remove excess Dox and left in drug-free media for 10 min. […] Coverslips were mounted on glass slides and placed on a 37° C. warmed stage of an Olympus Fluoview™ FV1000 (Olympus, Tokyo, Japan) confocal laser scanning microscope. Dox was excited with a green helium neon laser (543 nm) and emitted fluorescence intensity was measured. Images were acquired on the same day, typically from 10-20 cells of similar size from each experimental condition, using identical instrument settings.

MDA-MB-231 cells [2] = test: Intracellular localization of Dox by confocal live-cell imaging, MDA-MB-231; conditions: MDA-MB-231, 1% O2; Cq 10 μM, Baf 100 nM
Experimental: as §1

HT-1080 cells [3] = test: Intracellular pH measurement (HPTS/SNARF-1) by confocal microscopy, HT-1080; conditions: HT-1080, 1% O2, 4 h; for effect on hypoxia-induced intravesicular acidification: Baf 100 nM, Cq 10 μM
Experimental: (§2) The pH sensing ratiometric dyes SNARF-1 and HPTS (Life Technologies) were used simultaneously for pH measurement of both cytoplasmic (C-SNARF-1) and endosomal/lysosomal (HPTS) compartments as previously described^30. Briefly, cells were cultured in 35 mm petri dishes (BD Biosciences) and used at 50% confluence. For endocytic labeling, cells were incubated overnight with HPTS (1 mM), washed, followed by a 20-min incubation with SNARF-1 (5 μM) to label the cytoplasmic compartment. Living cells were analyzed using an Olympus Fluoview™ FV1000 confocal microscope. Fluorescence emissions of both pH-sensing probes were recorded and subsequently analyzed as described^30.

MDA-MB-231 cells [4] = test: Intracellular pH measurement (HPTS/SNARF-1) by confocal microscopy, MDA-MB-231; conditions: MDA-MB-231, 1% O2, 4 h; for effect on hypoxia-induced intravesicular acidification: Baf 100 nM, Cq 10 μM
Experimental: as §2

[5] = tested on: MDA-MB-231 breast cancer cells; test: MTT cell viability assay, MDA-MB-231; conditions: for IC50: Homo sapiens, MDA-MB-231, 72 h; for Fold change: MDA-MB-231, IC50 at 1% O2 to IC50 at 21% O2
Experimental: (§3) Cells (5×10^3) were cultured in 96-well plates and pre-incubated under 21% O2 or 1% O2 for 4 h following the addition of drugs for 72 h. Cell viability was measured using the 3-(4,5-dimethylthiazol-2-yl)-2,5-diphenyltetrazolium bromide (MTT) dye (Life Technologies) according to manufacturer's instructions. Because hypoxic conditions may affect the reduction of MTT to formazan, incubation of all cell cultures with MTT were performed under normoxic conditions. Each experiment was performed in triplicate and at least three independent experiments were performed. Log-scale dose-response data were plotted on a graph and a three-parameter non-linear regression was applied to determine IC50 values. For calculation of the IC50s, both normoxic and hypoxic drug-treated samples were normalized with their untreated counterpart.
(§4) To assess the role of pH in hypoxia-induced resistance to anthracyclines, the human breast cancer MDA-MB-231 and fibrosarcoma HT-1080 cell lines were incubated in the presence or absence of the commonly used anthracycline drugs, doxorubicin (Dox), daunorubicin (Dau) and the anthracycline analog drug, mitoxantrone (Mtx), under hypoxic (1% O2) or normoxic (21% O2) conditions for 72 hours. Cell viability was then assessed using the MTT assay. The impact of extracellular pH on Dox uptake by HT-1080 was also assessed.

[6] = tested on: HT-1080 fibrosarcoma cells; test: MTT cell viability assay, HT-1080; conditions: for Fold change: HT-1080, IC50 at 1% O2 to IC50 at 21% O2; for increase in resistance toward the drug by hypoxia: HT-1080 cells (so in the source), 1% O2 vs 21% O2; for IC50: Homo sapiens, HT-1080, 72 h
Experimental: as §3, §4

NHE6 = NHE6 localization (cell-surface biotinylation, EEA1 immunofluorescence) in HT-1080
Experimental: Biotinylation steps were performed at […] Cells were grown on circular 15-mm diameter glass coverslips (Thermo Fisher Scientific) and incubated at 21% or 1% O2. Cells were then washed with PBS containing 1 mM CaCl2 and 0.5 mM MgCl2 (PBSCM) and incubated for 5 min with 0.3 mg/ml of EZ-Link Sulfo-NHS-SS-Biotin (Pierce) in PBSCM. Unreacted biotin was quenched using 100 mM glycine. Cells were fixed for 10 min at room temperature using 1% PFA in PBS. Prior to staining, cells were blocked with 5% of BSA for 1 h at room temperature. Biotinylated cells were stained with 5 μg/ml Streptavidin Texas Red (Invitrogen) for 1 h at 4° C. Coverslips were washed and mounted on a microscope slide using Vectashield mounting media (Vector labs).
Cultured cells were fixed with 1% PFA for 10 min at room temperature, permeabilized with saponin (0.05% in PBS) for 20 min, and blocked with 2% BSA in PBS for 30 min. Cells were then incubated with the appropriate primary and secondary antibodies as follows: anti-EEA1 (1/500), anti-Rab7 (1/500) and fluorophore-conjugated secondary antibodies (1/1000). Images were recorded using an Olympus Fluoview™ FV1000 confocal microscope using a 63× oil immersion objective.

NHE6-RACK1 interaction = test: Co-immunoprecipitation of NHE6 with RACK1 in HT-1080; conditions: HT-1080, PDBu 100 nM
Experimental: Cells were lysed on ice in NP-40-containing buffer (50 mM Tris-HCl pH 8.0, 150 mM NaCl, 1% NP-40, 5 mM EDTA, phosphatase and protease inhibitors). Cell lysates were centrifuged at 13,000 rpm at 4° C. and protein concentration determined using the BCA protein assay (Thermo Fisher Scientific). After a pre-clearing step with protein A/G-agarose beads (GE Healthcare), protein complexes were immunoprecipitated overnight at 4° C. Samples were incubated in SDS-loading buffer for 30 minutes at room temperature to avoid transmembrane protein aggregates upon heating in a boiling water bath. Proteins were separated by SDS-PAGE electrophoresis, transferred to a PVDF membrane and immunoblotting was performed as described, using anti-NHE6 (1:1000), anti-NHE9 (1:1000) anti-RACK1 (1:2000), anti-tubulin (1:5000), anti-actin (1:5000) anti-HA (1:1000), anti-PKC (1:200), anti-phospho PKC substrate (1:1000), anti-LAMP2 (1:200), anti-P-glycoprotein (1:200) and HRP-conjugated secondary antibodies (1/10 000)^66.

CO/C1=C\C(C)=C\[C@@H](C)[C@@H](O)[C@@H](C)C/C(C)=C/C=C/[C@H](OC)[C@@H]([C@@H](C)[C@@H](O)[C@H](C)[C@@]2(O)C[C@@H](O)[C@H](C)[C@@H](C(C)C)O2)OC1=O [Baf, bafilomycin A1]
effect on hypoxia-induced Dox sequestration within endosomes (HT-1080 cells [1]): abolished hypoxia-induced Dox sequestration within endosomes | effect on hypoxia-induced Dox sequestration within endosomes (MDA-MB-231 cells [2]): abolished hypoxia-induced Dox sequestration within endosomes | effect on hypoxia-induced intravesicular acidification (HT-1080 cells [3]): prevented | effect on hypoxia-induced intravesicular acidification (MDA-MB-231 cells [4]): prevented

COc1cccc2c1C(=O)c1c(O)c3c(c(O)c1C2=O)C[C@@](O)(C(C)=O)C[C@@H]3O[C@H]1C[C@H](N)[C@H](O)[C@H](C)O1 [Dau, daunorubicin]
IC50 ([5]; read-out: IC50 of anthracyclines, MDA-MB-231, 1% O2, 72 h): 921 nM | IC50 ([5]; read-out: IC50 of anthracyclines, MDA-MB-231, 21% O2, 72 h): 199 nM | Fold change [5]: 4.7 fold | Fold change [6]: 8.1 fold | increase in resistance toward the drug by hypoxia [6]: 4.7 fold | IC50 ([6]; read-out: IC50 of anthracyclines, HT-1080, 1% O2, 72 h): 814 nM | IC50 ([6]; read-out: IC50 of anthracyclines, HT-1080, 21% O2, 72 h): 102 nM

O=C1c2c(O)ccc(O)c2C(=O)c2c(NCCNCCO)ccc(NCCNCCO)c21 [Mtx, mitoxantrone]
IC50 ([5]; MDA-MB-231, 1% O2, 72 h, read-out: IC50 of anthracyclines): 752 nM | IC50 ([5]; MDA-MB-231, 21% O2, 72 h, read-out: IC50 of anthracyclines): 152 nM | Fold change [5]: 5.0 fold | Fold change [6]: 4.9 fold | increase in resistance toward the drug by hypoxia [6]: 5.0 fold | IC50 ([6]; HT-1080, 1% O2, 72 h, read-out: IC50 of anthracyclines): 451 nM | IC50 ([6]; HT-1080, 21% O2, 72 h, read-out: IC50 of anthracyclines): 93.5 nM

CCN(CC)CCCC(C)Nc1ccnc2cc(Cl)ccc12 (centres unmarked) [Cq, chloroquine]
effect on hypoxia-induced Dox sequestration within endosomes (HT-1080 cells [1]): abolished hypoxia-induced Dox sequestration within endosomes | effect on hypoxia-induced Dox sequestration within endosomes (MDA-MB-231 cells [2]): abolished hypoxia-induced Dox sequestration within endosomes | effect on hypoxia-induced intravesicular acidification (HT-1080 cells [3]): prevented | effect on hypoxia-induced intravesicular acidification (MDA-MB-231 cells [4]): prevented

CN(C)CCCn1cc(C2=C(c3c[nH]c4ccccc34)C(=O)NC2=O)c2ccccc21 [GF109203X]
Dox within the nucleus (HT-1080 cells [1]; HT-1080, 1% O2, PKC inhibition (GF-109203x 200 nM)): promoted the accumulation of Dox in the nuclear compartment | endosomal/lysosomal pH under hypoxic conditions (HT-1080 cells [3]; PKC inhibition (GF-109203x 200 nM)): partial recovery of normal pH values | hypoxia-induced NHE6 relocalization (NHE6; HT-1080, 1% O2, 4 h, GF-109203x 200 nM): blocked

CCCC(=O)O[C@@H]1[C@@H](C)[C@@]2(O)[C@@H](C=C(CO)C[C@]3(O)C(=O)C(C)=C[C@@H]23)[C@@H]2C(C)(C)[C@]12OC(=O)CCC [PDBu, phorbol-12,13-dibutyrate]
relocalization of NHE6 from endosomes to the plasma membrane (NHE6; HT-1080, normoxia, PDBu 100 nM): promoted | association of NHE6 with RACK1 (NHE6-RACK1 interaction): promoted

CCN(c1nc(N)c(C(=O)NC(=N)N)nc1Cl)C(C)C [EIPA]
effect on hypoxia-induced increase in cytosolic pH (HT-1080 cells [3]; EIPA 25 μM): prevented | effect on hypoxia-induced increase in cytosolic pH (MDA-MB-231 cells [4]; EIPA 25 μM): prevented
